This assay concerns rat hippocampal slices. The assay is described as follows: Reduction of azide-induced ischemic efflux of glutamate in rat hippocampal slices. The format is cell-based. The conditions noted are these: versus control, statistically significant, read-out: reduction of glutamate release (azide-induced ischemic efflux of glutamate). The method, then:
Adatanserin was evaluated for its ability to reduce the azide-induced ischemic efflux of glutamate in rat hippocampal slices. Three Krebs buffers were used in the experiments. Normal Krebs buffer consisted of a solution containing the following: (122 mM NaCl, 3 mM KCl, 24 mM NaHCO3, 10 mM glucose, 0.315 mM K2HPO4, 1.2 mM MgSO4, 4 mM CaCl2). Aglycemic Krebs buffer was similar to the normal buffer with the exception that glucose was not added. Ischemic Krebs buffer was the aglycemic solution which contained varying concentrations of sodium azide (0 - 30 mM).
Rat hippocampi were dissected on a cold platform and suspended in ice cold oxygenated normal Krebs buffer. The tissue was cross-chopped at 350 microns on a Mcllwain tissue chopper, then resuspended and washed three times with ice cold normal Krebs buffer. […] Amino acid concentrations were analyzed with reverse phase HPLC on a catacholamine column (Keystone Scinetific, 150 x 3 mm) employing an 0.05 M acetate/methanol gradient. […] Amino acids were visualized by derivatization with naphthalene-2,3-dicarboxaldehyde and fluorimetric detection (Dawson, L. A. et al., Improved Temporal Resolution of Microdialysis Measurement of Glutamate and Aspartate Using Capillary Electrophoresis with Laser Induced Fluorescence Detection. J. Chromatogr. B 1997, 694, 1204-1212). […]

Consider `O=C(NCCN1CCN(c2ncccn2)CC1)C12CC3CC(CC(C3)C1)C2` [adatanserin, N-[2-[4-(2-pyrimidinyl)-1-piperazinyl]ethyl]tricyclo[3.3.1.13,7]decane-1-carboxamide], for which the inhibition at 0.1 µM (adatanserin 100 nM) was found to be 72%. Further, the inhibition at 1 µM (adatanserin 1000 nM (1 µM)) amounted to 71%.

The values above are taken from EP1547597A2, “Use of adatanserin for the treatment of neurodegenerative conditions” (Wyeth, priority 1999, dated 2001).
